In the test the target is T1, ratTRPA1 (rTRPA1) (Rattus norvegicus, UniProt Q6RI86).
T1 construct: expressed in transfected cells
In words: TRPA1 calcium imaging in CHO cells (AITC activation). The format is cell-based. As to conditions: CHO cells expressing TRPA1, Fluo-4, AITC 160 μM. On the procedure:
TRPA1 is known to be responsible for inflammatory and neuropathic pain appearance; therefore, it can be considered as a potential biological target for the analgesic action of the studied pyrazolones. Therefore, we studied the effect of pyrazolone 6b, showing the maximum analgesic effect in the hot plate test at 1 h on the activation of the TRPA1 ion channel by allyl isothiocyanate (AITC). The cell line CHO (Chinese hamster ovary cell) stably expressing the TRPA1 channel was used for measurement. Activation by a specific agonist was measured by fluorescence spectroscopy using Fluo-4 dye by changing the level of intracellular calcium.
Testing for receptors ratTRPA1 (rTRPA1) and ratTRPV1 (rTRPV1), stably expressed in CHO cells, was carried out using the calcium imaging method as described in [123, 124]. Fluorescence was performed using NOVOstar (BMG LABTECH, Ortenberg, Germany). The tested substances in 26% DMSO solution or 26% DMSO solution alone (negative control) (5 μL) were added to the cells loaded with the cytoplasmic calcium indicator Fluo-4AM using Fluo-4 Direct™ Calcium Assay Kit (Thermo Fisher Scientific Inc., Waltham, MA, USA) (60 μL) and incubated 5–10 min. Final DMSO concentration was 2%. Changes in cell fluorescence (λex = 485 nm, λem = 520 nm) were monitored at 25 °C before and after the addition of relevant agonist. […]

Experimental findings from paper PMC9821843, “Powerful Potential of Polyfluoroalkyl-Containing 4-Arylhydrazinylidenepyrazol-3-ones for Pharmaceuticals” (Molecules, 2022) are described below.

SMILES strings stand for the structures.

T1 sequence (Q6RI86 whole entry): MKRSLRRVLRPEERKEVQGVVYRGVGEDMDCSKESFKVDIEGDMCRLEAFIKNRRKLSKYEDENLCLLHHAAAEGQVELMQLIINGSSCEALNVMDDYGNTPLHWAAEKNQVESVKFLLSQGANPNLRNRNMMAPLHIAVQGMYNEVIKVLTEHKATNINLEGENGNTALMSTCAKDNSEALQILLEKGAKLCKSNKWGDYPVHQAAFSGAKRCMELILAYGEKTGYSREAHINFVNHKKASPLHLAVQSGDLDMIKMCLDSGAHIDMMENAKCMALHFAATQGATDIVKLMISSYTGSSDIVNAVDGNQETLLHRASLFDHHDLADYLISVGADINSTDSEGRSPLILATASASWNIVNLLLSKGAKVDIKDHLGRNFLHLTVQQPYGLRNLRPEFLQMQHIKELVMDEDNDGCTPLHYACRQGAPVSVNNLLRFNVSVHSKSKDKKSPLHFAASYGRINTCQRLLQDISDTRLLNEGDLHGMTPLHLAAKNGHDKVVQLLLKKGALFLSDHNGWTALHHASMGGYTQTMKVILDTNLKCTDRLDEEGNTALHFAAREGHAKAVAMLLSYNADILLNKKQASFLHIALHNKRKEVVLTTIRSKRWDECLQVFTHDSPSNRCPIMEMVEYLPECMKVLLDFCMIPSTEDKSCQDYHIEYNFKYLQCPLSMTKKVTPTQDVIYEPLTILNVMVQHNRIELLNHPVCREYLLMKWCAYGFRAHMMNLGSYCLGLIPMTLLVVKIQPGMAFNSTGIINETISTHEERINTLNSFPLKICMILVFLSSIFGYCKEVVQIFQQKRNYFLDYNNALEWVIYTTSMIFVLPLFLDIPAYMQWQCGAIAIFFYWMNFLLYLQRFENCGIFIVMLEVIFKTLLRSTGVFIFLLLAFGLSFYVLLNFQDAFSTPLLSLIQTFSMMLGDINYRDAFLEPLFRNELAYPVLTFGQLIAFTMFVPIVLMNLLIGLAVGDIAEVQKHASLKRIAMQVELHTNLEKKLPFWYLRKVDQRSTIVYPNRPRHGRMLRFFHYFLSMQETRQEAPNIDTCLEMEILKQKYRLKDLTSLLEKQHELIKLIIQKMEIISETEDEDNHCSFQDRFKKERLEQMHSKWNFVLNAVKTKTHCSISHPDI

Regarding `Cc1ccc(N/N=C2\C(=O)N(c3ccccc3)N=C2C(F)(F)C(F)(F)F)cc1` [6b, (4Z)-4-[2-(4-Methylphenyl)hydrazinylidene]-5-(pentafluoroethyl)-2-phenyl-2,4-dihydro-3H-pyrazol-3-one], the “effect on AITC-induced TRPA1 channel activation” value is given as “no significant effect”.
